In patent US8476288B2, “Salts 756” (AstraZeneca AB, priority 2009, dated 2013):
Counter-ions that a name gives are not always drawn.

How the values were obtained:
Assay type in all cases: physicochemical
[1] = Salt storage stability at 40° C. and 75% relative humidity (HPLC for acid degradation product of Formula (A)); details: stored under high temperature and humidity, for example 40° C. and 75% relative humidity
Experimental: The stability of the stability of the mono-saccharin (2 different batches), mono-trans-cinnamic acid, mono-succinic acid, mono-benzoic acid, difumaric acid, dixinafoic acid (di-1-hydroxy-2-naphthoic acid) and disaccharin salts of Compound (I) when stored at 40° C. and 75% relative humidity was measured as follows.
Approximately 30 mg of each salt was weighted into 4 mL screw cap vials, the vials closed and stored at 40° C./75% relative humidity with constant control of the environmental conditions. For every time point the samples were removed from the storage facility and analysed by HPLC for the presence of the acid degradation product of the Formula (A): […]
The HPLC analysis was performed using the following method:
A sample solution was prepared at approximately 0.1 to 0.2 mg/mL in the sample diluent, 0.03% trifluoroacetic acid in 50/50 v/v acetonitrile/water, using sonication as required. The following chromatographic conditions were applied: […]

[2] = Salt/lactose monohydrate blend storage stability at 40° C. and 75% relative humidity; details: mixtures of salt with lactose monohydrate; 40° C./75% relative humidity
Experimental: The storage stability of blends of lactose monohydrate with the mono-saccharin, mono-benzoic acid, difumaric acid and disaccharin salts of Compound (I) when stored at is 40° C. and 75% relative humidity was measured as follows.
Approximately 5 grams of each salt were micronised using a 1″ jet mill (MC One, Jetpharma, Balerna, Switzerland) with Nitrogen as the flow gas.
10 g of bulk lactose blend of each salt was prepared by the following method:
Micronised lactose monohydrate (9800 mg) was added to a 60 ml clear glass bottle. To this was added the micronised salt of compound (I) (200 mg) and a rubber stopper and aluminium screw cap used to close the bottle.
The bottle containing the salt and lactose monohydrate was placed in a trembling blender (Turbula T2C, W. Bachofen, Basel, Switzerland) blending vessel and the mixture blended for 10 minutes on speed 1 (30 rpm). A sample (2 g) of the lactose/salt blend was removed. The remaining of lactose/salt blend (8 g) was placed in a stability suite (controlled environmental conditions) at 40° C./75% relative humidity. The sample was temporarily removed from the storage facility for analysis. For each analysis 50 mg of the lactose/salt blend were dissolved in the sample diluents and analysed by HPLC for the compound of Formula (A) as described above in Example 23.

[3] = Dynamic vapour sorption (DVS) hygroscopicity; details: at 80% relative humidity, weight change from 0% RH to 80% RH in second DVS cycle
Experimental: DVS analysis was performed using an SMS Dynamic Vapour Sorption DVS-Advantage instrument. The solid sample (approximately 1-5 mg) was placed into a platinum sample holder and the weight of the sample was recorded during a dual cycle step method (40 to 90 to 0 to 90 to 0% relative humidity (RH), in steps of 10% RH).
The responses of the mono-fumaric acid salt and the difumaric acid salt (Examples 15 and 19) to changes in humidity were investigated using DVS. The hygroscopicity was calculated as the relative change in weight of the sample between 0% RH at the start of the second cycle and 80% RH during the increase of humidity in the second cycle.
The hygroscopicity of a sample is dependent on factors in addition to the inherent properties of the pure solid form itself, for example the purity and the crystallinity of the sample will have some impact on the result.

Row | SMILES | solid state chemical stability on storage [1] | stability in the presence of lactose monohydrate [2] | moisture uptake (hygroscopicity) ([3]; listed as difumaric acid salt of Compound (I)) | moisture uptake (hygroscopicity) [3]
1 | CCCCCNc1nc(N)nc(C)c1Cc1ccc(CC(=O)OCCCCN(C)C)cc1.O=C(O)c1ccccc1 [Example 1, 4-(Dimethylamino)butyl 2-(4-((2-amino-4-methyl-6-(pentylamino)pyrimidin-5-yl)methyl)phenyl)acetate benzoic acid salt] | good solid state chemical stability | – | – | –
2 | CCCCCNc1nc(N)nc(C)c1Cc1ccc(CC(=O)OCCCCN(C)C)cc1 [disaccharin salt of Compound (I)] | good solid state chemical stability | particularly stable in the presence of lactose monohydrate | – | –
3 | CCCCCNc1nc(N)nc(C)c1Cc1ccc(CC(=O)OCCCCN(C)C)cc1.O=C(O)/C=C/C(=O)O [Example 19, 4-(Dimethylamino)butyl 2-(4-((2-amino-4-methyl-6-(pentylamino)pyrimidin-5-yl)methyl)phenyl)acetate difumaric acid salt] | good solid state chemical stability | particularly stable in the presence of lactose monohydrate | 0.2-2 % w/w | –
4 | CCCCCNc1nc(N)nc(C)c1Cc1ccc(CC(=O)OCCCCN(C)C)cc1.O=C(O)/C=C/C(=O)O [Example 15, 4-(Dimethylamino)butyl 2-(4-((2-amino-4-methyl-6-(pentylamino)pyrimidin-5-yl)methyl)phenyl)acetate fumaric acid salt] | – | – | – | more than 2 % w/w
